Measurements reported in patent publication EP0228113A2 (priority 1985, dated 1987).
In brackets after ≈: the same amount, converted by molar mass.

Assays:
Format in all cases: cell-based
[1] = test system: Legionella pneumophila gr. 1; experiment: microbe, parasite or virus in culture; conditions: GR.1, 96 h, pH 6
[2] = test system: Legionella pneumophila gr. 5; experiment: microbe, parasite or virus in culture; conditions: GR.5, 96 h, pH 6
[3] = test system: L.pneumophila gr. 5; experiment: microbe, parasite or virus in culture; conditions: Legionella pneumophila, GR.5, 48 h, pH 6
[4] = test system: L.jordanis; experiment: microbe, parasite or virus in culture; conditions: pH 6; 48 hours; 37°C
[5] = test system: L.oakridgensis; experiment: microbe, parasite or virus in culture; conditions: pH 6; 48 hours; 37°C
[6] = test system: L.pneumophila gr. 3; experiment: microbe, parasite or virus in culture; conditions: Legionella pneumophila, GR.3, 48 h, pH 6
[7] = test system: L.pneumophila gr. 7; experiment: microbe, parasite or virus in culture; conditions: Legionella pneumophila, GR.7, 48 h, pH 6
[8] = test system: L.pneumophila gr.10; experiment: microbe, parasite or virus in culture; conditions: Legionella pneumophila, GR.10, 48 h, pH 6
[9] = test system: L.pneumophila gr. 6; experiment: microbe, parasite or virus in culture; conditions: Legionella pneumophila, GR.6, 48 h, pH 6
[10] = test system: L.pneumophila gr. 4; experiment: microbe, parasite or virus in culture; conditions: Legionella pneumophila, GR.4, 48 h, pH 6
[11] = test system: L.pneumophila gr. 8; experiment: microbe, parasite or virus in culture; conditions: Legionella pneumophila, GR.8, 48 h, pH 6
[12] = test system: L.wadsworthii; experiment: microbe, parasite or virus in culture; conditions: pH 6; 48 hours; 37°C
[13] = test system: L.gormanii; experiment: MIC determination on buffered charcoal yeast-extract agar (Example I); conditions: Fluoribacter gormanii, pH 6,9, 48 hours, 37°C
[14] = test system: L.pneumophila gr. 2; experiment: microbe, parasite or virus in culture; conditions: Legionella pneumophila, GR.2, 48 h, pH 6
[15] = test system: L.pneumophila gr. 9; experiment: microbe, parasite or virus in culture; conditions: Legionella pneumophila, GR.9, 48 h, pH 6
[16] = test system: L.dumoffii; experiment: microbe, parasite or virus in culture; conditions: pH 6; 48 hours; 37°C
[17] = test system: L.micdadei; experiment: microbe, parasite or virus in culture; conditions: pH 6; 48 hours; 37°C
[18] = test system: L.longbeachae gr. 2; experiment: microbe, parasite or virus in culture; conditions: pH 6; 48 hours; 37°C
[19] = test system: L.longbeachae gr. 1; experiment: microbe, parasite or virus in culture; conditions: pH 6; 48 hours; 37°C
[20] = test system: L.bozemanii gr. 1; experiment: microbe, parasite or virus in culture; conditions: pH 6; 48 hours; 37°C
[21] = test system: Myxococcus xanthus; experiment: MIC determination on casitone agar (Example III); conditions: 96 h, pH 7.6, casitone agar pH 7,6, four days, 30°C

`CCCCCCCCCCCCCN1CC(C)OC(C)C1` (stereo not drawn) [tridemorph] was tested, and the MIC [1] was 100 µg/mL (≈ 336 µM) and the MIC [2] was 50 µg/mL (≈ 168 µM).

For `c1ccc(-c2ccc(C(c3ccccc3)n3ccnc3)cc2)cc1` (stereo not drawn) [bifonazole], the MIC [3] was 64 µg/mL (≈ 206 µM), the MIC [4] was 64 µg/mL (≈ 206 µM) and the MIC [5] was 64 µg/mL (≈ 206 µM). It also gave an MIC [6] of 128 µg/mL (≈ 412 µM), an MIC [7] of 128 µg/mL (≈ 412 µM) and an MIC [8] of 128 µg/mL (≈ 412 µM). For the same molecule, the MIC [9] was 64 µg/mL (≈ 206 µM), the MIC [10] was 128 µg/mL (≈ 412 µM) and the MIC [11] was 128 µg/mL (≈ 412 µM). For the same molecule, the MIC [12] was 32 µg/mL (≈ 103 µM), the MIC [13] was 128 µg/mL (≈ 412 µM) and the MIC [14] was 128 µg/mL (≈ 412 µM). The MIC [15] was 128 µg/mL (≈ 412 µM), the MIC [16] was 64 µg/mL (≈ 206 µM) and the MIC [17] was 64 µg/mL (≈ 206 µM). It also gave an MIC [18] of 64 µg/mL (≈ 206 µM), an MIC [19] of 64 µg/mL (≈ 206 µM) and an MIC [20] of 128 µg/mL (≈ 412 µM).

Work on `Clc1ccccc1C(c1ccccc1)(c1ccccc1)n1ccnc1` [clotrimazole] yielded an MIC [3] of 16 µg/mL (≈ 46.4 µM), an MIC [4] of 16 µg/mL (≈ 46.4 µM) and an MIC [5] of 8 µg/mL (≈ 23.2 µM). It also gave an MIC [6] of 8 µg/mL (≈ 23.2 µM), an MIC [7] of 16 µg/mL (≈ 46.4 µM) and an MIC [8] of 16 µg/mL (≈ 46.4 µM). The MIC [9] was 16 µg/mL (≈ 46.4 µM), the MIC [10] was 16 µg/mL (≈ 46.4 µM) and the MIC [11] was 16 µg/mL (≈ 46.4 µM). For the same molecule, the MIC [12] was 8 µg/mL (≈ 23.2 µM), the MIC [13] was 8 µg/mL (≈ 23.2 µM) and the MIC [14] was 16 µg/mL (≈ 46.4 µM). For the same molecule, the MIC [15] was 16 µg/mL (≈ 46.4 µM), the MIC [16] was 16 µg/mL (≈ 46.4 µM) and the MIC [17] was 16 µg/mL (≈ 46.4 µM). For the same molecule, the MIC [18] was 16 µg/mL (≈ 46.4 µM), the MIC [19] was 16 µg/mL (≈ 46.4 µM) and the MIC [21] was 2 µg/mL (≈ 5.8 µM). For the same molecule, the MIC [20] was 8 µg/mL (≈ 23.2 µM).

For `CCC1COC(Cn2cncn2)(c2ccc(Cl)cc2Cl)O1` (stereo not drawn) [etaconazole], the MIC [1] was over 100 µg/mL and the MIC [2] was over 100 µg/mL.

For `Clc1ccccc1C(c1ccc(-c2ccccc2)cc1)n1ccnc1` (stereo not drawn) [lombazole], the MIC [3] was 64 µg/mL (≈ 186 µM), the MIC [4] was 64 µg/mL (≈ 186 µM) and the MIC [5] was 64 µg/mL (≈ 186 µM). The MIC [6] was 128 µg/mL (≈ 371 µM), the MIC [7] was 128 µg/mL (≈ 371 µM) and the MIC [8] was 64 µg/mL (≈ 186 µM). For the same molecule, the MIC [9] was 64 µg/mL (≈ 186 µM), the MIC [10] was 128 µg/mL (≈ 371 µM) and the MIC [11] was 128 µg/mL (≈ 371 µM). The MIC [12] was 32 µg/mL (≈ 92.8 µM), the MIC [13] was 64 µg/mL (≈ 186 µM) and the MIC [14] was 128 µg/mL (≈ 371 µM). For the same molecule, the MIC [15] was 128 µg/mL (≈ 371 µM), the MIC [16] was 64 µg/mL (≈ 186 µM) and the MIC [17] was 64 µg/mL (≈ 186 µM). It also gave an MIC [18] of 64 µg/mL (≈ 186 µM), an MIC [19] of 64 µg/mL (≈ 186 µM) and an MIC [21] of 2 µg/mL (≈ 5.8 µM). The MIC [20] was 128 µg/mL (≈ 371 µM).

Molecule `Clc1ccc(COC(Cn2ccnc2)c2ccc(Cl)cc2Cl)c(Cl)c1` (stereo not drawn) [miconazole] has an MIC [3] of 128 µg/mL (≈ 308 µM), an MIC [4] of 128 µg/mL (≈ 308 µM) and an MIC [5] of 64 µg/mL (≈ 154 µM). The MIC [6] was 128 µg/mL (≈ 308 µM), the MIC [7] was 128 µg/mL (≈ 308 µM) and the MIC [8] was 128 µg/mL (≈ 308 µM). For the same molecule, the MIC [9] was 128 µg/mL (≈ 308 µM), the MIC [10] was 128 µg/mL (≈ 308 µM) and the MIC [11] was 128 µg/mL (≈ 308 µM). The MIC [12] was 128 µg/mL (≈ 308 µM), the MIC [13] was 128 µg/mL (≈ 308 µM) and the MIC [14] was 128 µg/mL (≈ 308 µM). It also gave an MIC [15] of 128 µg/mL (≈ 308 µM), an MIC [16] of 128 µg/mL (≈ 308 µM) and an MIC [17] of 128 µg/mL (≈ 308 µM). For the same molecule, the MIC [18] was 128 µg/mL (≈ 308 µM), the MIC [19] was 128 µg/mL (≈ 308 µM) and the MIC [21] was 2 µg/mL (≈ 4.81 µM). The MIC [20] was 128 µg/mL (≈ 308 µM).

For `OC(c1ccc(Cl)cc1)(c1cncnc1)c1ccccc1Cl` (stereo not drawn) [fenarimol], the MIC [1] was 100 µg/mL (≈ 302 µM) and the MIC [2] was 100 µg/mL (≈ 302 µM).
